According to US20260091141A1, “GENE EDITING METHODS, SYSTEMS, AND COMPOSITIONS FOR TREATING SPINAL MUSCULAR ATROPHY” (The Broad Institute, Inc., priority 2023, published 2026):

Assays:
SMN2 exon 7 splicing = SMN2 exon 7 splicing by RT-PCR (exons 6 to 8) and automated electrophoresis in Δ7SMA mESCs; format: cell-based, mouse
Method: To assess whether nuclease-mediated editing of ISS-N1 improved exon 7 splicing, reverse-transcription PCR (RT-PCR) of SMN2 was performed from exons 6 to 8, and SMNΔ7 and full-length SMN products were quantified by automated electrophoresis (FIG. 1C).
For Δ7SMA mESCs nusinersen experiments, cells were transfected with 20 nM of fully 2′-O-methoxyethyl (MOE)-modified ASO (5′-[…]-3′) (SEQ ID NO: 469) on a phosphorothioate backbone (TriLink), using Lipofectamine 3000 (ThermoFisher Scientific). After 24 hours media was replaced every other day with fresh mESC+2i media. For splicing rescue by risdiplam, mESC media was supplemented with 0.1-1 μM of risdiplam (RG7916, Selleck Chemicals LLC) in DMSO, as indicated. Cells were harvested at the indicated timepoints.
mRNA was isolated from […] mESCs with the RNeasy mini kit (Qiagen), and reverse transcription was performed using SuperScript IV (ThermoFisher) according to the manufacturer's protocols. For targeted SMN2 qPCR and splice product quantitation by automated electrophoresis, reverse transcription was performed with random hexamers. Splicing inclusion of SMN2 exon 7 was quantified by automated electrophoresis using Tape Station (Agilent). For unbiased SMN2 splice product analysis by high-throughput sequencing, reverse transcription was performed using a custom oligo-dT primer with a Read 2 Illumina sequencing stub. […]

Δ7SMA mice = experiment: Electrophysiological measurements (CMAP, MUNE) in Δ7SMA mice; format: in vivo, mouse; conditions: PND12, 2.5×10^13 vg/kg Zolgensma, 0.1 mg/kg risdiplam IP daily
Method: Compound muscle action potential (CMAP) amplitude and motor unit number estimation (MUNE) from the gastrocnemius muscle of treated animals was performed to assess loss of motor neuron functional integrity, a key feature of SMA and preclinical SMA models^131. […] MUNE were reduced by 50% in untreated Δ7SMA animals compared to heterozygous mice. […] In contrast, little or no improvement in MUNE was observed following Zolgensma or 0.1 mg/kg risdiplam administration (50% and 75% relative to heterozygotes respectively, Kruskal-Wallis test p>0.6). […] Thus, neonatal ICV injection of AAV9-ABE measurably rescues SMA pathophysiology of spinal motor neurons.
Compound muscle action potential (CMAP) and motor unit number estimate (MUNE) measurements were performed as previously described^178. Briefly, at PND12 the right sciatic nerve was stimulated with a pair of insulated 28-gauge monopolar needles (Teca, Oxford Instruments Medical, NY) placed in proximity to the sciatic nerve in the proximal hind limb.
Recording electrodes consisted of a pair of fine ring wire electrodes (Alpine Biomed, Skovlunde, Denmark). […]
For MUNE, an incremental stimulus technique similar to a previously described procedure was used^178. […] The peak-to-peak amplitude of each individual incremental response was calculated by subtracting the amplitude of the prior response. […]

SMN protein [1] = conditions: patient tissues; cited from earlier work
SMN2 transcript = experiment: SMN2 / exon 7 mRNA transcript levels in Δ7SMA mESCs; format: cell-based, mouse
Method: (§1) Risdiplam doses of 1.0, 0.5, 0.25, or 0.1 μM were used (shown from left to right in the graph). […] The asterisk indicates p<0.05 by Welch's two-tailed t-test. […] UG=unrelated guide; NT=no treatment.
(§2) UG-unrelated guide; NT=no treatment.

SMN protein [2] = experiment: Western blot of SMN protein in Δ7SMA mESCs; format: cell-based, mouse; conditions: normalized to histone H3
Method: Cells harvested for western blot were washed with ice-cold PBS and incubated at 4° C. for 30 min while rocking in RIPA lysis buffer (ThermoFisher) supplemented with 1 mM PMSF (ThermoFisher) and complete EDTA-free protease inhibitor cocktail (Roche). Lysates were clarified by centrifugation at 12,000 rpm at 4° C. for 20 min. Lysates were normalized using BCA (Pierce BCA Protein Assay Kit) and combined with 4× Laemelli buffer (BioRad) and DTT (ThermoFisher) at a final concentration of 1 mM. 10 μg of reduced protein were loaded per gel lane, and transfer was performed with an iBlot 2 dry blotting system (ThermoFisher) using the following program: 20V for 1 min, then 23 V for 4 min, then 25 V for 2 min, for a total transfer time of 7 minutes. Blocking was performed at room temperature for 60 minutes with block buffer: 1% BSA in TBST (150 mM NaCl, 0.5% Tween-20, 50 mM Tris-Cl, pH 7.5).
Membranes were then incubated in primary antibody diluted in block buffer for 2 hours at room temperature. After a washing, secondary antibodies diluted in TBST were added and incubated for 1 hour at room temperature. Membranes were washed again and imaged using a LI-COR Odyssey. Wash steps were 3×5-minute washes in TBST. […]

SMN2 mRNA = experiment: RT-qPCR of SMN2 mRNA abundance in Δ7SMA mESCs; format: cell-based, mouse
Method: To investigate how exon 8 SA disruption affects SMN2 transcripts, reverse transcription quantitative PCR (RT-qPCR) was performed to measure the abundance of SMN2 mRNA in treated and control Δ7SMA mESCs. The terminal sequence of SMN2, including intron 7 and the 3′ untranslated region (UTR) of exon 8, encode negative regulators of gene expression and mRNA transcript stability^21,71,72. Alternative splicing at the terminus of SMN2 therefore may result in increased SMN protein levels. […]
To investigate whether risdiplam and nusinersen treatment of Δ7SMA mESCs affect SMN2 transcript abundance, RT-qPCR was performed, and SMN2 mRNA levels were quantified in treated and genome edited cells (FIG. 7G). […] In contrast, a 1.8-fold reduction of SMN2 mRNA was detected 48 hours after nusinersen treatment relative to untreated Δ7SMA mESCs (Welch's two-tailed t-test p<0.005) that explains the relative reduction in SMN protein levels compared to the base editing approach (FIG. 2G).
mRNA was isolated from […] mESCs with the RNeasy mini kit (Qiagen), and reverse transcription was performed using SuperScript IV (ThermoFisher) according to the manufacturer's protocols. For targeted SMN2 qPCR and splice product quantitation by automated electrophoresis, reverse transcription was performed with random hexamers. […]

SMN protein [3] = conditions: SMA patients; cited from earlier work
SMN protein [4] = experiment: SMN protein levels in Δ7SMA mESCs by Western blot, normalized to histone H3; format: cell-based, mouse
Excerpt: Precise deletions are defined as those that remove ≥4 nt of ISS-N1 including ≥4 nt of the 3′-hnRNP A1/A2 domain. […] Precise deletions are defined as those that enable the addition of five or more C-terminal amino acids to SMNΔ7 (SMNΔ7mod) to restore protein stability. […] The observed fraction of precise deletions, splice acceptor (SA) deletions, and other indels are shown. […] FIG. 1I provides stacked bar charts showing SMN2 splice variants following editing with C-nuc and C-CBE, as measured by high-throughput sequencing of mRNA transcripts amplified with exon 6 and polyA-primers. Splicing activity of exon 7 spliced and unspliced sub-fractions is shown. Asterisks indicate *≤0.05. **≤0.01, and ***≤0.005.
as §1, §2

DNA = conditions: SpCas9 mutation relative to SEQ ID NO: 209; UniProtKB Q99ZW2 entry; cited from earlier work

Row | Molecule | exon 7 splicing (SMN2 exon 7 splicing) [%] | MUNE relative to heterozygotes (Δ7SMA mice) [%] | increase of SMN protein levels (SMN protein [1]) [fold] | effect on SMN2 transcript levels (SMN2 transcript) | increase in SMN protein levels relative to untreated (SMN protein [2]) [fold] | increase in SMN2 transcripts relative to untreated cells (SMN2 mRNA) [fold] | increase of SMN protein levels in patient tissues (SMN protein [3]) [fold] | SMN protein levels, increase compared to Δ7SMA mESCs (SMN protein [4]) [fold] | Function/Characteristic (as reported) (DNA)
1 | Cc1cn2nc(-c3cc(=O)n4cc(N5CCNC6(CC6)C5)ccc4n3)cc(C)c2n1 [risdiplam] | 89±4.3 | 75 | ~2 | interfered with the endogenous regulation of SMN transcript levels | 9.1 | 1.6 | ~2 | 9.5 | –
2 | H840A: SpCas9 mutation relative to SEQ ID NO: 209 | – | – | – | – | – | – | – | – | Nickase mutant which cleaves the non-
